These results are taken from ChEMBL document CHEMBL2375230 (J Med Chem, 2013).

The target in data set [1] is T1, Methionine aminopeptidase 1 (Homo sapiens, UniProt P53582). Description: Inhibition of human methionine aminopeptidase 1 in presence of Co2+.
The target in data set [2] is T1, Methionine aminopeptidase 1. Description: Inhibition of human methionine aminopeptidase 1 in presence of Mn2+.
For data set [3], the target named is Methionine aminopeptidase 2 (Homo sapiens, UniProt P50579). Nature of the data set: Inhibition of human methionine aminopeptidase 2 in presence of Mn2+.
Chain of Methionine aminopeptidase 2 (P50579 whole entry): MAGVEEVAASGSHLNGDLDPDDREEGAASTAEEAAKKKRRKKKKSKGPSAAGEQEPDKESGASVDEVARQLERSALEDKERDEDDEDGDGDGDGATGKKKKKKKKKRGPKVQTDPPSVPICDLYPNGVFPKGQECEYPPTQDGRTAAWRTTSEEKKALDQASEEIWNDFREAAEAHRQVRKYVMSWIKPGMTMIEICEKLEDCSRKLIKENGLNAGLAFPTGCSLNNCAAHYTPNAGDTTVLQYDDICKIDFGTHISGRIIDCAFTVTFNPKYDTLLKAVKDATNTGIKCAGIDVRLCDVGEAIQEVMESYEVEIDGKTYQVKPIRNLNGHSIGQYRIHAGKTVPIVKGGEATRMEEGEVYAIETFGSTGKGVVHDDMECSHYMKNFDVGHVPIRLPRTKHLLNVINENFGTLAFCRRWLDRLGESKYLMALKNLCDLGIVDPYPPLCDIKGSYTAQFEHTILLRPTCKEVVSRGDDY
Data set [4] in a line: Antiproliferative activity against HDFa cells at 30 uM after 30 hrs by [3H]-thymidine incorporation assay relative to control. The data set is classed as functional, Homo sapiens. (Dividing cells build labelled thymidine or BrdU into new DNA.)
A short description of data set [5]: Antiproliferative activity against HDFa cells after 30 hrs by [3H]-thymidine incorporation assay. The class given is functional, cell-based, Homo sapiens.
In another data set the test system is HDFa. Description: Antiproliferative activity against HDFa cells at 10 uM after 30 hrs by [3H]-thymidine incorporation assay. The data set is classed as functional, cell-based. The conditions noted are these: Homo sapiens.
The subject of the next data set is PC-3. Nature of the data set: Inhibition of methionine aminopeptidase in human PC3 cells assessed as increase in ratio of unprocessed 14-3-3gamma to total 14-3-3gamma at 0.1 uM after 24 hrs by immunoblotting analysis relative to DMSO-treated control. The data set is classed as cell-based. In general terms: A western blot detects proteins with antibodies after separation by electrophoresis.

For the next data set, the system named is MCF7. Nature of the data set: Inhibition of methionine aminopeptidase in human MCF7 cells assessed as increase in ratio of unprocessed 14-3-3gamma to total 14-3-3gamma at 0.1 uM after 24 hrs by immunoblotting analysis relative to DMSO-treated control. The data set is classed as cell-based.
The target in data set [6] is T1, Methionine aminopeptidase 1. Description: Inhibition of human methionine aminopeptidase 1 in presence of Zn2+.
For data set [7] the target is unchanged. Description: Inhibition of human methionine aminopeptidase 1 up to 250 uM.
The subject of data set [8] is HUVEC. Description: Antiproliferative activity against HUVEC after 30 hrs by [3H]-thymidine incorporation assay. The data set is classed as functional, cell-based, Homo sapiens.
The subject of data set [9] is HUVEC. Nature of the data set: Antiproliferative activity against HUVEC at 30 uM after 30 hrs by [3H]-thymidine incorporation assay relative to control. The data set is classed as functional, Homo sapiens.
A short description of data set [10]: Solubility of the compound. The data set is classed as physicochemical.
For data set [11], the system named is HeLa. Nature of the data set: Antiproliferative activity against human HeLa cells after 30 hrs by [3H]-thymidine incorporation assay. The data set is classed as functional, cell-based.
For the next data set, the system named is E6-1. Nature of the data set: Inhibition of methionine aminopeptidase in human Jurkat E6-1 cells assessed as increase in ratio of unprocessed 14-3-3gamma to total 14-3-3gamma at 0.1 uM after 24 hrs by immunoblotting analysis relative to DMSO-treated control. The class given is cell-based.
Data set [12] has as its system HUVEC. Nature of the data set: Inhibition of methionine aminopeptidase in HUVEC assessed as increase in unprocessed 14-3-3gamma level at 0.1 to 10 uM by immunoblotting analysis. The class given is cell-based. The conditions noted are these: Homo sapiens.
Data set [13] has as its system HeLa. Description: Inhibition of methionine aminopeptidase in human HeLa cells assessed as increase in ratio of unprocessed 14-3-3gamma to total 14-3-3gamma at 0.1 uM after 24 hrs by immunoblotting analysis relative to DMSO-treated control. The class given is cell-based.
In a further data set the test system is HEK293. Description: Inhibition of methionine aminopeptidase in HEK293 cells assessed as increase in ratio of unprocessed 14-3-3gamma to total 14-3-3gamma at 0.1 uM after 24 hrs by immunoblotting analysis relative to DMSO-treated control. The data set is classed as cell-based. The conditions noted are these: Homo sapiens.
The subject of data set [14] is HUVEC. Description: Inhibition of methionine aminopeptidase in HUVEC assessed as accumulation of unprocessed 14-3-3gamma at 10 nM after 24 hrs by immunoblotting analysis. The data set is classed as cell-based. Particulars: Homo sapiens.
The subject of data set [15] is HUVEC. Description: Inhibition of methionine aminopeptidase in HUVEC assessed as increase in unprocessed 14-3-3gamma level at 0.1 to 10 uM by immunoblotting analysis in presence of cycloheximide. The data set is classed as cell-based. Particulars: Homo sapiens.
A further data set is filed under the species Homo sapiens. Nature of the data set: Inhibition of methionine aminopeptidase in HUVEC assessed as increase in ratio of unprocessed 14-3-3gamma to total 14-3-3gamma at 0.1 uM after 24 hrs by immunoblotting analysis relative to control.
The test system of data set [16] is HUVEC. Description: Cytotoxicity against HUVEC at 10 uM after 24 hrs. Particulars: human. The class given is cell-based.
In data set [17] the test system is HUVEC. Nature of the data set: Inhibition of methionine aminopeptidase in HUVEC assessed as accumulation of unprocessed 14-3-3gamma at 1 nM after 24 hrs by immunoblotting analysis. The conditions noted are these: Homo sapiens. The class given is cell-based.
Data set [18] has as its target T1, Methionine aminopeptidase 1. Nature of the data set: Inhibition of methionine aminopeptidase 1 in HEK293 cells expressing 3xFLAG-tagged BTF3 assessed as increase in [35S]-Met in solution at 100 nM after 30 mins by scintillation counting analysis. The data set is classed as cell-based.

As a reminder, the EC50 is the concentration needed to bring the measured effect to its halfway point. What is called solubility is the dissolved amount per volume that the medium holds. Read a low solubility as little dissolved substance.

Each structure is given as a SMILES string. In brackets after ≈: the same amount, converted by molar mass. Activity calls are given as the source filed them. The calls are words filed in the database; no cut-off is given here.

On to `Clc1nc(-c2ccccn2)nc2ccccc12`, for which the EC50 in data set [1] is 1.5 µM; in [2], above 100 µM; in data set [3], above 100 µM.
Molecule `c1ccc(-c2ccccn2)nc1` came in with an Activity in [4] of 94%. The molecule also gave an EC50 in data set [5] (Homo sapiens, HDFa) of 10 µM. Besides, the outcome in the data set on HDFa was inactive.
Take `CCCCCCCCCCCCCC(=O)O[C@H]1CC[C@H](NC(=O)[C@H](OC)[C@H](O)[C@@H](O)[C@H](O)/C=C/C(C)C)C(=O)N(C)C1`: the Ratio in the data set with PC-3 was found to be 2.1; in the data set with MCF7, 2.6.
For `c1ccc2[nH]c(-c3cscn3)nc2c1` [THIABENDAZOLE], the concentration giving a half-maximal response (EC50) was 3.4 µM in data set [1]; above 250 µM in [6]; above 250 µM in [5] (Homo sapiens, HDFa); above 250 µM with HUVEC [8] (Homo sapiens, HUVEC); above 100 µM in data set [2]. For the same molecule, the inhibition result in [7] was “inactive”.
`Cc1nc(-c2ccccn2)nc(NCCc2ccccc2)c1Cl` displayed an Activity with HUVEC [9] above 90%. Further, the EC50 in data set [5] (Homo sapiens, HDFa) amounted to 3.6 µM; in the data set on HeLa [11] (Homo sapiens, HeLa), 7.1 µM; in the data set with HUVEC [8] (Homo sapiens, HUVEC), 11 µM. Moreover, the concentration in solution in data set [10] (solubility) came to 90 µM (≈ 29.2 µg/mL).
Consider `c1ccc(CCNc2nc(-c3ccccn3)nc3ccccc23)cc1`, for which the EC50 in data set [1] was 0.94 µM; in data set [2], 24 µM; in data set [3], above 100 µM.
For `c1ccc(-c2nc(N3CCOCC3)c3ccccc3n2)nc1`, the values for the EC50 in [1], in data set [2] and in [3] were 0.049 µM, 41 µM and above 100 µM, respectively.
On to `CC(C)(C)OC(=O)Nc1cccnc1C(=O)Nc1nccs1`, for which the EC50 in data set [5] (Homo sapiens, HDFa) came out at 0.79 µM; in data set [5] (hdfa), 0.65 µM; in the data set with HeLa [11] (Homo sapiens, HeLa), 2.3 µM; in the data set on HeLa [11] (hela) it was 2 µM; in the data set on HUVEC [8] (Homo sapiens, HUVEC) it was 2 µM; in the data set with HUVEC [8] (huvec), 1.5 µM.
`CCCCCCCCCCCCCC(=O)O[C@H]1CC[C@H](NC(=O)[C@H](OC)[C@H](O)[C@@H](O)[C@H](O)/C=C/C(C)C)C(=O)NC1`: the Ratio in the data set on E6-1 is 1.4; in the data set with HeLa [13] it was 2.3; in the data set on HEK293, 2.1; in the data set filed under Homo sapiens, 8.1. For the same molecule, the inhibition result in the data set on HUVEC [12] and in the data set with HUVEC [14] was “Active” each time. Also, the inhibition result with HUVEC [15] was “inactive”.
Take `Cc1nc(-c2ccc(Cl)cn2)nc(NC[C@@H](NCCCCc2ccccc2)c2ccccc2)c1Cl`: the EC50 was 0.76 µM in data set [5] (Homo sapiens, HDFa) and 0.97 µM with HeLa [11] (Homo sapiens, HeLa). The same molecule gave a solubility in data set [10] of 40 µM (≈ 20.3 µg/mL). For the same molecule, in the data set with HUVEC [16], the Activity entry is given as “Toxic”.
For the molecule `Cc1nc(-c2ccccn2)nc(NCCNc2ccc(C(F)(F)F)cn2)c1Cl`, the 50% effective concentration (EC50) in [5] (Homo sapiens, HDFa) was 1.9 µM; in the data set on HeLa [11] (Homo sapiens, HeLa) it was 10 µM; in the data set with HUVEC [8] (Homo sapiens, HUVEC), 4.3 µM. In [10], the solubility came to 40 µM (≈ 16.4 µg/mL).
For `c1ccc(-c2cc(N3CCOCC3)c3ccccc3n2)nc1`, the 50% effective concentration (EC50) is 0.41 µM in data set [1], above 100 µM in [2] and above 100 µM in data set [3].
With `c1ccc(NCCNc2nc(-c3ccccn3)nc3ccccc23)cc1`, the EC50 in [1] is 1.6 µM; in data set [2], above 100 µM; in data set [3], above 300 µM.
Consider `CO[C@@H]1[C@H](OC(=O)NC(=O)CCl)CC[C@]2(CO2)[C@H]1[C@@]1(C)O[C@@H]1CC=C(C)C`, for which the inhibition result in the data set on HUVEC [12] and in the data set on HUVEC [17] was “Active” in each case. Further, the inhibition entry (with HUVEC [15]; in [18]) was “inactive” throughout.
As for `c1ccc(-c2nc(N3CCCCC3)c3ccccc3n2)nc1`, the values for the concentration giving a half-maximal response (EC50) in data set [1], in data set [2] and in data set [3] were 0.11 µM, 7.6 µM and above 100 µM, respectively.
The matching figures for `c1ccc(-c2cc(N3CCCCC3)c3ccccc3n2)nc1`: 0.39 µM, above 100 µM and above 100 µM.
The like results for `CN1CCN(c2cc(-c3ccccn3)nc3ccccc23)CC1` were, in that order, 0.87 µM, above 100 µM and above 100 µM.
